Source: the supplement of paper PMC10307832

Experiments:
Test in all cases: relative viability (nuclei count vs DMSO), 5 days (fraction); higher = more cells survive
[1] = compound: CN(c1ncccc1CNc1nc(Nc2ccc3c(c2)CC(=O)N3)ncc1C(F)(F)F)S(C)(=O)=O + CC(=O)c1c(C)c2cnc(Nc3ccc(N4CCNCC4)cn3)nc2n(C2CCCC2)c1=O [Palbociclib] (partner 0.5 µM)
How it was run: (§1)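 One day after seeding in 1536-well plates, lung cancer cell lines were dosed by pin tool. Dosing was either single-drug or a fixed anchor-drug dose plus five library-drug doses (not always all listed) in √10 steps. After 5 days, nuclei were stained in one fix-and-stain step and counted on 4× images, and relative viability is the nuclei count of treated wells over that of vehicle wells, given as the median of duplicate plates.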

[2] = compound: CN(c1ncccc1CNc1nc(Nc2ccc3c(c2)CC(=O)N3)ncc1C(F)(F)F)S(C)(=O)=O + C[C@@H](Oc1cc(-c2cnn(C3CCNCC3)c2)cnc1N)c1c(Cl)ccc(F)c1Cl [Crizotinib] (partner 1 µM)
How it was run: as §1

[3] = compound: CN(c1ncccc1CNc1nc(Nc2ccc3c(c2)CC(=O)N3)ncc1C(F)(F)F)S(C)(=O)=O + NC(=O)Nc1cc(-c2cccc(F)c2)sc1C(=O)N[C@H]1CCCNC1 [AZD7762] (partner 0.2 µM)
How it was run: as §1

[4] = compound: CN(c1ncccc1CNc1nc(Nc2ccc3c(c2)CC(=O)N3)ncc1C(F)(F)F)S(C)(=O)=O + O=C(CCCCCCC(=O)Nc1ccccc1)NO [Vorinostat] (partner 1 µM)
How it was run: as §1

Cell Line	relative viability ([1]; first compound 0.01 µM)	relative viability ([1]; first compound 0.03162 µM)	relative viability ([1]; first compound 0.1 µM)	relative viability ([1]; first compound 0.3162 µM)	relative viability ([1]; first compound 1 µM)	relative viability ([2]; first compound 0.01 µM)	relative viability ([2]; first compound 0.03162 µM)	relative viability ([2]; first compound 0.1 µM)	relative viability ([2]; first compound 0.3162 µM)	relative viability ([2]; first compound 1 µM)	relative viability ([3]; first compound 0.01 µM)	relative viability ([3]; first compound 0.03162 µM)	relative viability ([3]; first compound 0.1 µM)	relative viability ([3]; first compound 0.3162 µM)	relative viability ([3]; first compound 1 µM)	relative viability ([4]; first compound 0.01 µM)	relative viability ([4]; first compound 0.03162 µM)	relative viability ([4]; first compound 0.1 µM)	relative viability ([4]; first compound 0.3162 µM)	relative viability ([4]; first compound 1 µM)
201T	0.35	0.348	0.354	0.343	0.323	1.05	0.991	1.02	0.975	1	0.617	0.582	0.688	0.654	0.604	0.971	0.98	0.915	0.9	0.923
A549						0.762	0.799	0.803	0.797	0.526										
A-427	0.529	0.491	0.516	0.546	0.491	0.916	0.964	0.951	0.783	0.725	0.798	0.81	0.874	1.14	0.907	0.892	0.874	0.878	0.903	0.859
ABC-1	0.608	0.609	0.725	0.814	0.676	1.12	1.21	1.09	1.15	1.17	0.838	0.86	0.825	0.803	1.08	1.02	0.948	1.28	1.11	1.27
BEN	0.461	0.472	0.48	0.499	0.434	0.825	0.949	0.813	0.848	0.848	0.721	0.709	0.73	0.774	0.563	0.546	0.625	0.578	0.544	0.554
CAL-12T	0.44	0.341	0.416	0.407	0.366	0.619	0.538	0.576	0.566	0.593	0.677	0.603	0.559	0.647	0.633	0.91	0.854	0.726	0.767	0.708
COR-L23	0.265	0.262	0.308	0.239	0.234	0.653	0.649	0.7	0.594	0.486						0.471	0.392	0.327	0.305	0.295
COR-L 105	0.426	0.411	0.41	0.427	0.376	0.64	0.649	0.779	0.747	0.47						0.813	0.865	0.873	0.855	0.619
Calu-6						0.809	0.828	0.774	0.725	0.546										
ChaGo-K-1	0.942	0.955	0.917	0.785	0.877	1.1	1.21	1.08		1.05	0.932	0.856	0.873	0.917	0.853	0.756	0.708	0.778	0.816	0.738
EBC-1						0.204	0.195	0.216	0.2	0.186										
EKVX	0.369	0.372	0.359	0.285	0.352	0.895	0.828	0.98	0.801	0.789	0.723	0.676	0.747	0.838	0.748	0.638	0.746	0.638	0.627	0.494
EMC-BAC-2	0.494	0.503	0.518	0.511	0.491	0.798	0.817	0.717	0.78	0.778	1.17	1.08	1.1	1.11	1.14	0.46	0.229	0.446	0.44	0.443
EPLC-272H	0.366	0.357	0.358	0.353	0.299	0.912	0.873	0.888	0.968	0.93	0.273	0.174	0.211	0.331	0.291	0.546	0.23	0.408	0.564	0.263
H3255	0.312	0.316	0.345	0.327	0.295	0.945	1.03	0.832	0.663	0.839	0.938	0.871	0.935	0.934	0.81	0.881	0.931	0.767	0.796	0.743
HARA	0.211	0.276	0.231	0.203	0.247	0.938	0.938	1	1.02	0.698	0.49	0.351	0.368	0.355	0.455	0.569	0.573	0.55	0.516	0.432
HCC-15	0.709	0.747	0.65	0.609	0.583	0.821	0.746	0.739	0.707	0.6	1.31	1.39	1.04	1.23	1.21	0.79	0.796	0.741	0.77	0.675
HCC-44	0.83	0.953	0.943	0.907	0.867	0.876	0.893	0.798	0.788	0.749	0.948	1.02	0.969	0.967	0.964	1.1	1.06	1.13	1.14	1.1
HCC-78	0.419	0.46	0.462	0.487	0.408	0.379	0.342	0.305	0.29	0.319	0.859	0.646	0.644	0.565	0.521	0.526	0.47	0.431	0.414	0.403
HCC-366	0.41	0.391	0.342	0.336	0.316	0.588	0.964	0.509	0.606	0.236	0.378	0.329	0.319	0.288	0.34	0.412	0.394	0.365	0.366	0.295
HCC-827	0.453	0.462	0.503	0.545	0.437	0.893	0.905	1	0.893	0.851	0.202	0.227	0.25	0.284	0.331	0.923	0.861	0.806	0.954	0.783

Cell Line	relative viability ([1]; first compound 0.01 µM)	relative viability ([1]; first compound 0.03162 µM)	relative viability ([1]; first compound 0.1 µM)	relative viability ([1]; first compound 0.3162 µM)	relative viability ([1]; first compound 1 µM)	relative viability ([2]; first compound 0.01 µM)	relative viability ([2]; first compound 0.03162 µM)	relative viability ([2]; first compound 0.1 µM)	relative viability ([2]; first compound 0.3162 µM)	relative viability ([2]; first compound 1 µM)	relative viability ([3]; first compound 0.01 µM)	relative viability ([3]; first compound 0.03162 µM)	relative viability ([3]; first compound 0.1 µM)	relative viability ([3]; first compound 0.3162 µM)	relative viability ([3]; first compound 1 µM)	relative viability ([4]; first compound 0.01 µM)	relative viability ([4]; first compound 0.03162 µM)	relative viability ([4]; first compound 0.1 µM)	relative viability ([4]; first compound 0.3162 µM)	relative viability ([4]; first compound 1 µM)
IA-LM						0.862	0.924	0.908	0.91	0.714						0.991	1.12	0.801	0.859	0.86
NCI-H520	0.27	0.209	0.244	0.262	0.24	0.874	0.795	0.78	0.782	0.601						0.678	0.925	0.693	0.746	0.754
NCI-H596						0.988	0.928	0.894	0.986	0.999	0.999	1.1	0.948	1.05	1.05	0.586	0.616	0.566	0.557	0.69
NCI-H661	0.406	0.385	0.429	0.383	0.341	0.973	0.955	1.02	0.904	0.915						0.763	0.84	0.744	0.786	0.759
NCI-H1299						0.989	1.02	0.979	0.995	0.955										
NCI-H1395	0.649	0.602	0.698	0.655	0.596						0.41	0.368	0.421	0.398	0.424	0.792	0.698	0.725	0.659	0.898
NCI-H1563						0.855	0.83	0.91	0.864	0.799										
NCI-H1648	0.264	0.274	0.224	0.242	0.207						0.66	0.588	0.535	0.551	0.677	0.336	0.493	0.471	0.292	0.413
NCI-H1650	0.291	0.31	0.367	0.321	0.304	1.01	0.945	1.17		0.94						0.682	0.513	0.581	0.586	0.69
NCI-H1703						0.586	0.678	1.15	0.986	0.417	0.131	0.18	0.124	0.127	0.118					
NCI-H1792	0.627	0.783	0.63	0.637	0.602	0.936	1.01	0.971	0.938	0.961	0.721	0.822	0.674	0.722	0.755					
NCI-H1793	0.314	0.321	0.328	0.341	0.324						0.407	0.541	0.543	0.53	0.452	0.866	0.724	0.785	0.699	0.713
NCI-H2009	0.207	0.179	0.251	0.202	0.191	1.01	1.06	1.06	1.02	1.04						0.724	0.838	0.693	0.75	0.685
NCI-H2023	0.382	0.405	0.376	0.339	0.229	0.679	0.766	0.682	0.585	0.537						0.636	0.826	0.666	0.709	0.487
NCI-H2228	0.836	0.878	0.881	0.749	0.6	0.408	0.516	0.39	0.47	0.402						0.42	0.579	0.758	0.882	0.547
NCI-H2342	0.564	0.536	0.548	0.497	0.455						0.506	0.516	0.472	0.402	0.404	0.772	0.848	0.696	0.646	0.803
SK-LU-1	0.405	0.358	0.398	0.401	0.369	0.944	0.882	0.858	0.808	0.784						0.6	0.693	0.722	0.711	0.594
SK-MES-1	0.286	0.298	0.304	0.296	0.294	0.943	0.989	0.944	0.983	0.846						1.1	1.13	1.09	1.08	0.951
SW 900	0.513	0.48	0.52	0.52	0.456						0.579	0.688	0.784	0.594	0.733	0.535	0.511	0.594	0.661	0.562
SW 1573	0.482	0.399	0.346	0.31	0.35	0.874	0.732	0.777	0.843	0.78						0.832	1.11	0.696	0.992	0.588
UMC-11	0.316	0.346	0.394	0.317	0.34	0.59	0.584	0.654	0.476	0.298						0.417	0.363	0.314	0.331	0.229
